Measurements reported in paper PMC4601599, “High-resolution structures of Lactobacillus salivarius transketolase in the presence and absence of thiamine pyrophosphate” (Acta Crystallographica. Section F, Structural Biology …, 2015).

Columns and labels:
[1] = target: T1, LsTktA (Lactobacillus salivarius UCC118 transketolase) (Ligilactobacillus salivarius, UniProt Q1WQU8); test: X-ray crystal structure of co-crystal, […] A; format: binding; conditions: Mg2+; co-crystallised with 0.5 mM TPP and 2 mM MgCl2; pH 7.5; 293 K; site at dimer interface
T1 construct: gene tktA; pOPINF, His-tagged, expressed in E. coli Rosetta pLysS (DE3); 680 residues with tag; 662 residues modelled; homodimer; megaplasmid pMP118-encoded
T1 sequence (Q1WQU8 1-663): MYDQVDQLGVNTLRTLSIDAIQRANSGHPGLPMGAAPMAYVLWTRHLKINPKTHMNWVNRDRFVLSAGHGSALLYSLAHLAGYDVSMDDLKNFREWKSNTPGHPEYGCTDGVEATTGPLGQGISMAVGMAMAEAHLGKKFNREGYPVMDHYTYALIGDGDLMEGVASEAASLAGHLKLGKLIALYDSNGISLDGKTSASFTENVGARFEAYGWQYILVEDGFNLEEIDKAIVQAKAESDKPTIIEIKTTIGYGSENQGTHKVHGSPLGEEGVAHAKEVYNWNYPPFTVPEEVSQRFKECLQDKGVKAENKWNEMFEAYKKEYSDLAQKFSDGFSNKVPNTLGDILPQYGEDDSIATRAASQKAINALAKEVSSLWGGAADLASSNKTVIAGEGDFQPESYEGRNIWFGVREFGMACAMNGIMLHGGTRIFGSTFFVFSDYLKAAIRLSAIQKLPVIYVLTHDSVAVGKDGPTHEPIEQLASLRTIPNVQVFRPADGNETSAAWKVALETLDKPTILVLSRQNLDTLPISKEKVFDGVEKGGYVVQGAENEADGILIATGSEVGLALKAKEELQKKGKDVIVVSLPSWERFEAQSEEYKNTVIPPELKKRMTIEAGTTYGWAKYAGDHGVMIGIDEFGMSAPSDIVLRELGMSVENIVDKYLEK

[2] = target: the molecule itself; test: SEC-MALS; Superdex 200 Increase 10/300 GL, 20 mM Tris-HCl pH 7.5, 200 mM NaCl, 0.5 mM TCEP, 20 C, with and without 0.5 mM TPP; about 1 mg/ml; dimer and monomer

Molecule: Cc1ncc(C[n+]2csc(CCOP(=O)(O)OP(=O)(O)O)c2C)c(N)n1 [thiamine pyrophosphate]
- X-ray crystal structure of co-crystal, 2.29 A [1]: Two symmetrical TPP cofactor-binding sites are located at the LsTktA dimer interface

B1: Lactobacillus salivarius UCC118 transketolase (LsTktA) (enzyme, UniProt Q1WQU8 1-663, looked up)
chain: MYDQVDQLGVNTLRTLSIDAIQRANSGHPGLPMGAAPMAYVLWTRHLKINPKTHMNWVNRDRFVLSAGHGSALLYSLAHLAGYDVSMDDLKNFREWKSNTPGHPEYGCTDGVEATTGPLGQGISMAVGMAMAEAHLGKKFNREGYPVMDHYTYALIGDGDLMEGVASEAASLAGHLKLGKLIALYDSNGISLDGKTSASFTENVGARFEAYGWQYILVEDGFNLEEIDKAIVQAKAESDKPTIIEIKTTIGYGSENQGTHKVHGSPLGEEGVAHAKEVYNWNYPPFTVPEEVSQRFKECLQDKGVKAENKWNEMFEAYKKEYSDLAQKFSDGFSNKVPNTLGDILPQYGEDDSIATRAASQKAINALAKEVSSLWGGAADLASSNKTVIAGEGDFQPESYEGRNIWFGVREFGMACAMNGIMLHGGTRIFGSTFFVFSDYLKAAIRLSAIQKLPVIYVLTHDSVAVGKDGPTHEPIEQLASLRTIPNVQVFRPADGNETSAAWKVALETLDKPTILVLSRQNLDTLPISKEKVFDGVEKGGYVVQGAENEADGILIATGSEVGLALKAKEELQKKGKDVIVVSLPSWERFEAQSEEYKNTVIPPELKKRMTIEAGTTYGWAKYAGDHGVMIGIDEFGMSAPSDIVLRELGMSVENIVDKYLEK
notes: Transketolase (tktA, LSL_1946) of Lactobacillus salivarius UCC118, encoded on the megaplasmid pMP118; the histidine-tagged protein consists of 680 amino acids; 662 amino acids are modelled in the crystal structures; Crystallised apo and with TPP and Mg2+; also called L. salivarius Tkt; LSL_1946; source: E. coli Rosetta pLysS (DE3), purified (nickel-chelation chromatography, gel filtration)
- stoichiometry N [2]: 2
